Measured values as given in ChEMBL document CHEMBL5634143, “Development of teixobactin analogues containing hydrophobic, non-proteogenic amino acids that are highly potent against multidrug-resistant bacteria and biofilms” (Eur J Med Chem, 2023).
Converted amounts (≈) assume the structure as drawn. The source made the active and inactive calls. No cut-off for these calls is given here.

What was measured:
Cell membrane [1] = assay: Induction of cytoplasmic membrane depolarization in methicilin-resistant Staphylococcus aureus 21455 at 8 times MIC by DiSC3(5) dye-based fluorescence assay
Bacillus cereus = assay: Antibacterial activity against Bacillus cereus ATCC 11788 assessed as inhibition of bacterial growth; assay type: functional
Staphylococcus aureus [2] = assay: Antibacterial activity against methicilin-resistant Staphylococcus aureus 21455 assessed as inhibition of bacterial growth; assay type: functional
[3] = tested on: Staphylococcus saprophyticus; assay: Antibacterial activity against Staphylococcus saprophyticus ATCC 49907 assessed as inhibition of bacterial growth; assay type: functional
[4] = tested on: Staphylococcus saprophyticus; assay: Antibacterial activity against Staphylococcus saprophyticus ATCC 15305 assessed as inhibition of bacterial growth; assay type: functional
Enterococcus faecium [5] = assay: Antibacterial activity against Vancomycin-resistant Enterococcus […] ATCC 29212 assessed as inhibition of bacterial growth; assay type: functional; details: Enterococcus faecalis
Staphylococcus aureus [6] = assay: Bactericidal activity against methicilin-resistant Staphylococcus aureus 21455 assessed as reduction in bacterial viability at 2 times MIC observed after 4 hrs by time-kill kinetic assay relative to control; assay type: functional
Staphylococcus aureus [7] = assay: Antibacterial activity against methicilin-resistant Staphylococcus aureus 1003 assessed as inhibition of bacterial growth; assay type: functional
Staphylococcus aureus [8] = assay: Antibacterial activity against methicilin-resistant Staphylococcus aureus ATCC 700699 assessed as inhibition of bacterial growth; assay type: functional
[9] = tested on: Staphylococcus saprophyticus; assay: Antibacterial activity against Staphylococcus saprophyticus ATCC BAA 750 assessed as inhibition of bacterial growth; assay type: functional
Staphylococcus aureus [10] = assay: Antibacterial activity against Staphylococcus aureus 4299 assessed as inhibition of bacterial growth; assay type: functional
Cell membrane [11] = assay: Induction of cytoplasmic membrane depolarization in methicilin-resistant Staphylococcus aureus 21455 at 16 times MIC by DiSC3(5) dye-based fluorescence assay
[12] = tested on: Staphylococcus saprophyticus; assay: Antibacterial activity against Staphylococcus saprophyticus ATCC 49453 assessed as inhibition of bacterial growth; assay type: functional
Cell membrane [13] = assay: Induction of cell membrane […] in methicilin-resistant Staphylococcus aureus 21455 assessed as increase in fluorescence intensity at 8 times MIC by SYTOX green dye based fluorescence analysis; assay type: cell membranes
Staphylococcus aureus [14] = assay: Antibacterial activity against methicilin-resistant Staphylococcus aureus 42412 assessed as inhibition of bacterial growth; assay type: functional
Enterococcus faecium [15] = assay: Antibacterial activity against Vancomycin-resistant Enterococcus faecium 1014 assessed as inhibition of bacterial growth; assay type: functional
Staphylococcus aureus [16] = assay: Bactericidal activity against methicilin-resistant Staphylococcus aureus 21455 assessed as reduction in bacterial colony forming unit at 16 times MIC observed after 2 hrs by time-kill kinetic assay; assay type: functional
[17] = Hemolytic activity in rabbit erythrocytes assessed as hemolysis at 64 microg/ml relative to control; assay type: toxicity, cell-based, Oryctolagus cuniculus, Erythrocyte; details: at 64 µg/mL, read-out: Activity
[18] = Hemolytic activity in rabbit erythrocytes assessed as hemolysis at 256 microg/ml relative to control; assay type: toxicity, cell-based, Oryctolagus cuniculus, Erythrocyte; details: at 256 µg/mL, read-out: Activity
Bacillus subtilis = assay: Antibacterial activity against Bacillus subtilis ATCC 6633 assessed as inhibition of bacterial growth; assay type: functional
Cell membrane [19] = assay: Induction of cell membrane […] in methicilin-resistant Staphylococcus aureus 21455 assessed as increase in fluorescence intensity at 16 times MIC by SYTOX green dye based fluorescence analysis; assay type: cell membranes
Staphylococcus aureus [20] = assay: Antibacterial activity against Staphylococcus aureus 29213 assessed as inhibition of bacterial growth; assay type: functional
[21] = tested on: Staphylococcus epidermidis; assay: Antibacterial activity against Staphylococcus epidermidis 12228 assessed as inhibition of bacterial growth; assay type: functional
Enterococcus faecium [22] = assay: Antibacterial activity against Vancomycin-resistant Enterococcus […] ATCC 700802 assessed as inhibition of bacterial growth; assay type: functional
Staphylococcus aureus [23] = assay: Bactericidal activity against methicilin-resistant Staphylococcus aureus 21455 assessed as inhibition of bacterial growth by time-kill kinetic assay; assay type: functional, organism-based
Staphylococcus aureus [24] = assay: Bactericidal activity against methicilin-resistant Staphylococcus aureus 21455 assessed as inhibition of bacterial growth at >=8 times MIC by time-kill kinetic assay; assay type: functional, organism-based
Staphylococcus aureus [25] = assay: Bactericidal activity against methicilin-resistant Staphylococcus aureus 21455 assessed as reduction in bacterial growth by measuring minimum bactericidal concentration at 16 times MIC by time-kill kinetic assay; assay type: functional
[26] = Hemolytic activity in rabbit erythrocytes assessed as hemolysis at 512 microg/ml relative to control; assay type: toxicity, cell-based, Oryctolagus cuniculus, Erythrocyte; details: at 512 µg/mL, read-out: Activity
Staphylococcus aureus [27] = assay: Bactericidal activity against methicilin-resistant Staphylococcus aureus 21455 assessed as reduction in bacterial colony forming unit at 16 times MIC observed after 8 hrs by time-kill kinetic assay; assay type: functional, organism-based
Staphylococcus aureus [28] = assay: Bactericidal activity against methicilin-resistant Staphylococcus aureus 21455 assessed as reduction in bacterial colony forming unit at 16 times MIC observed after 24 hrs by time-kill kinetic assay; assay type: functional, organism-based
Staphylococcus aureus [29] = assay: Antibacterial activity against Staphylococcus aureus 15981 assessed as inhibition of biofilm formation at 10 ug/ml incubated for 5 hrs by confocal microscopic analysis; assay type: functional, organism-based; details: dose 10.0 µg/ml
[30] = tested on: Staphylococcus epidermidis; assay: Antibacterial activity against Staphylococcus epidermidis 1457 assessed as inhibition of biofilm formation at 10 ug/ml incubated for 5 hrs by confocal microscopic analysis; assay type: functional, organism-based; details: dose 10.0 µg/ml

| Compound | Activity (Cell membrane [1]) | MIC (Bacillus cereus) [µg/mL] | MIC (Staphylococcus aureus [2]) [µg/mL] | MIC [3] [µg/mL] | MIC [4] [µg/mL] | MIC (Enterococcus faecium [5]) [µg/mL] | MIC (Staphylococcus aureus [7]) [µg/mL] | MIC (Staphylococcus aureus [8]) [µg/mL] | MIC [9] [µg/mL] | MIC (Staphylococcus aureus [10]) [µg/mL] | Activity (Cell membrane [11]) | MIC [12] [µg/mL] | Activity (Cell membrane [13]) | MIC (Staphylococcus aureus [14]) [µg/mL] | MIC (Enterococcus faecium [15]) [µg/mL] | MIC (Bacillus subtilis) [µg/mL] | Activity (Cell membrane [19]) | MIC (Staphylococcus aureus [20]) [µg/mL] | MIC [21] [µg/mL] | MIC (Enterococcus faecium [22]) [µg/mL] | other results |
| --- | --- | --- | --- | --- | --- | --- | --- | --- | --- | --- | --- | --- | --- | --- | --- | --- | --- | --- | --- | --- | --- |
| CC[C@H](C)[C@H](NC(=O)[C@@H](Cc1ccccc1)NC)C(=O)N[C@@H](CCCNC(=N)N)C(=O)N[C@H](CCCNC(=N)N)C(=O)N[C@@H](C(=O)N[C@H](C(=O)N[C@@H](CO)C(=O)N[C@H]1C(=O)N[C@@H](CCCNC(=N)N)C(=O)N[C@@H](C2CCCCC2)C(=O)N[C@@H]([C@@H](C)CC)C(=O)O[C@H]1C)[C@@H](C)CC)[C@@H](C)CC | Active | 0.5 (≈ 0.355 µM) | 2 (≈ 1.42 µM) | 0.063 (≈ 0.0447 µM) | < 0.063 | 2 (≈ 1.42 µM) | 1 (≈ 0.709 µM) | 1 (≈ 0.709 µM) | < 0.063 | 1 (≈ 0.709 µM) | Active | 0.063 (≈ 0.0447 µM) | 65.5% | 1 (≈ 0.709 µM) | 2 (≈ 1.42 µM) | 0.063 (≈ 0.0447 µM) | 70.2% | 0.5 (≈ 0.355 µM) | 0.063 (≈ 0.0447 µM) | 4 (≈ 2.84 µM) | Activity (Staphylococcus aureus [6]): >=99.9%; Activity (Staphylococcus aureus [16]): >=3 log10CFU; hemolysis at 64 microg/ml [17]: 5.4%; hemolysis at 256 microg/ml [18]: 25%; Activity (Staphylococcus aureus [23]): Dose-Dependent Effect |
| CC[C@H](C)[C@H](NC(=O)[C@@H](Cc1ccccc1)NC)C(=O)N[C@@H](CO)C(=O)N[C@H](CCC(N)=O)C(=O)N[C@@H](C(=O)N[C@H](C(=O)N[C@@H](CO)C(=O)N[C@H]1C(=O)N[C@@H](C)C(=O)N[C@@H](C2CCCCC2)C(=O)N[C@@H]([C@@H](C)CC)C(=O)O[C@H]1C)[C@@H](C)CC)[C@@H](C)CC | inactive | 0.063 (≈ 0.0513 µM) | 0.125 (≈ 0.102 µM) | 0.063 (≈ 0.0513 µM) | < 0.063 | 0.125 (≈ 0.102 µM) | 0.063 (≈ 0.0513 µM) | 0.125 (≈ 0.102 µM) | 0.063 (≈ 0.0513 µM) | 0.063 (≈ 0.0513 µM) | inactive | < 0.063 | 8.8% | 0.063 (≈ 0.0513 µM) | 0.25 (≈ 0.204 µM) | 0.063 (≈ 0.0513 µM) | 10.6% | 0.063 (≈ 0.0513 µM) | 0.063 (≈ 0.0513 µM) | 0.063 (≈ 0.0513 µM) | Activity (Staphylococcus aureus [24]): Active; MBC (Staphylococcus aureus [25]): 2 µg/mL (≈ 1.63 µM); hemolysis at 512 microg/ml [26]: ≤ 2%; Activity (Staphylococcus aureus [27]): Active; Activity (Staphylococcus aureus [28]): Active |
| CC[C@H](C)[C@H](NC(=O)[C@@H](Cc1ccccc1)NC)C(=O)N[C@@H](CCCNC(=N)N)C(=O)N[C@H](CCCNC(=N)N)C(=O)N[C@@H](C(=O)N[C@H](C(=O)N[C@@H](CO)C(=O)N[C@H]1C(=O)N[C@@H](C)C(=O)N[C@@H](C2CCCCC2)C(=O)N[C@@H]([C@@H](C)CC)C(=O)O[C@H]1C)[C@@H](C)CC)[C@@H](C)CC | Active | 2 (≈ 1.51 µM) | 0.25 (≈ 0.189 µM) | 0.063 (≈ 0.0476 µM) | < 0.063 | 2 (≈ 1.51 µM) | 0.5 (≈ 0.377 µM) | 0.25 (≈ 0.189 µM) | < 0.063 | 0.125 (≈ 0.0944 µM) | Active | 0.125 (≈ 0.0944 µM) | Active | 0.063 (≈ 0.0476 µM) | 1 (≈ 0.755 µM) | 0.063 (≈ 0.0476 µM) | Active | 0.063 (≈ 0.0476 µM) | 0.063 (≈ 0.0476 µM) | 2 (≈ 1.51 µM) | Activity (Staphylococcus aureus [29]): Active; Activity [30]: Active; Activity (Staphylococcus aureus [6]): >=99.9%; Activity (Staphylococcus aureus [16]): >=3 log10CFU; hemolysis at 64 microg/ml [17]: 3.7%; hemolysis at 256 microg/ml [18]: 18%; Activity (Staphylococcus aureus [23]): Dose-Dependent Effect |
